In the assay the test system is MDA-MB-231 human breast cancer cells. The assay is described as follows: Cell proliferation assay (CellTiter-Glo, 72 hours treatment). The assay is classed as cell-based. Particulars: Homo sapiens, read-out: MDA-MB-231 cell proliferation assay (IC50). The gist of the method:
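MDA-MB-231 cells seeded at 2,500 cells/well, treated next day with compound or DMSO vehicle for 72 h at 37 °C. Proliferation read by CellTiter-Glo; IC50 from sigmoidal non-linear regression, binned as +++ (<100 nM), ++ (100–1000 nM), + (>1000 nM).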

Setting [1] is: MDA-MB-231 cells, 72 hours at 37° C., CellTiter-Glo.

Like-named read-outs stand apart in the source and are kept apart here.

Regarding `NC[C@@H]1C[C@@H](c2ccccc2)[C@]2(c3ccc(Br)cc3)Oc3cc(Cl)cnc3[C@]12O` (racemic) [165F, Rac-(5aR,6S,8S,8aR)-8-(aminomethyl)-5a-(4-bromophenyl)-3-chloro-6-phenyl-5a,6,7,8-tetra-hydro-8aH-cyclopenta[4,5]furo[3,2-b]pyridin-8a-ol], under setting [1], the IC50 lay in the range of 100 to 1000 nM.
`OC[C@@H]1C[C@@H](c2ccccc2)[C@]2(c3ccc(Br)cc3)Oc3cc(Cl)cnc3[C@]12O` (racemic) [166F, rac-(5aR,6S,8S,8aR)-5a-(4-bromophenyl)-3-chloro-8-(hydroxymethyl)-6-phenyl-5a,6,7,8-tetrahydro-8aH-cyclopenta[4,5]furo[3,2-b]pyridin-8a-ol]: the IC50 under setting [1] was 100 to 1000 nM.
Take `N#Cc1ccc([C@@]23Oc4cc(Cl)cnc4[C@]2(O)[C@@H](CO)C[C@H]3c2ccccc2)cc1` (racemic) [167F, Rac-4-((5aR,6S,8R,8aR)-3-chloro-8a-hydroxy-8-(hydroxymethyl)-6-phenyl-6,7,8,8a-tetrahydro-5aH-cyclopenta[4,5]furo[3,2-b]pyridin-5a-yl)benzonitrile]: the IC50 under setting [1] lay in the range of 100 to 1000 nM.
On the same count and under the same terms, under `N#Cc1ccc([C@@]23Oc4cc(Cl)cnc4[C@]2(O)[C@H](CO)C[C@H]3c2ccccc2)cc1` (racemic) [168F, Rac-4-((5aR,6S,8S,8aR)-3-chloro-8a-hydroxy-8-(hydroxymethyl)-6-phenyl-6,7,8,8a-tetrahydro-5aH-cyclopenta[4,5]furo[3,2-b]pyridin-5a-yl)benzonitrile] stands greater than 1000 nM.
The same measure, in the same setting: with `O=C1O[C@@H]2[C@H]1[C@@H](c1ccccc1)[C@]1(c3ccc(Br)cc3)Oc3cc(Cl)cnc3[C@]21O` (racemic) [169F, Rac-(2aR,3S,3aR,8bS,8cR)-3a-(4-bromophenyl)-6-chloro-8b-hydroxy-3-phenyl-3,3a,8b,8c-tetrahydrooxeto[3″,2″:4′,5′]cyclopenta[1′,2′:4,5]furo[3,2-b]pyridin-2(2aH)-one] the figure was greater than 1000 nM.
Turning to `COc1cncc2c1[C@]1(O)[C@@H](CN)[C@H](CO)[C@@H](c3ccccc3)[C@]1(c1ccc(Br)cc1)O2` (racemic) [170F, Rac-(4bR,5R,6R,7S,7aR)-5-(aminomethyl)-7a-(4-bromophenyl)-6-(hydroxymethyl)-4-methoxy-7-phenyl-5,6,7,7a-tetrahydro-4bH-cyclopenta[4,5]furo[2,3-c]pyridin-4b-ol], the IC50 under setting [1] is less than 100 nM.
On the same count and under the same terms, under `COc1cncc2c1[C@]1(O)[C@@H](CN)[C@H](CO)[C@@H](c3ccccc3)[C@]1(c1ccc(C#N)cc1)O2` (racemic) [171F, Rac-4-((4bR,5R,6R,7S,7aR)-5-(aminomethyl)-4b-hydroxy-6-(hydroxymethyl)-4-methoxy-7-phenyl-4b,5,6,7-tetrahydro-7aH-cyclopenta[4,5]furo[2,3-c]pyridin-7a-yl)benzonitrile] stands 100 to 1000 nM.
As for `COc1cncc2c1[C@]1(O)[C@@H](CN)C[C@@H](c3ccccc3)[C@]1(c1ccc(Br)cc1)O2` (racemic) [172F, Rac-(4bR,5R,7S,7aR)-5-(aminomethyl)-7a-(4-bromophenyl)-4-methoxy-7-phenyl-5,6,7,7a-tetrahydro-4bH-cyclopenta[4,5]furo[2,3-c]pyridin-4b-ol], under “MDA-MB-231, 72 h”, the IC50 was less than 100 nM.
`COc1cncc2c1[C@]1(O)[C@@H](CN)C[C@@H](c3ccccc3)[C@]1(c1ccc(C#N)cc1)O2` (racemic) [173F, Rac-4-((4bR,5R,7S,7aR)-5-(aminomethyl)-4b-hydroxy-4-methoxy-7-phenyl-4b,5,6,7-tetrahydro-7aH-cyclopenta[4,5]furo[2,3-c]pyridin-7a-yl)benzonitrile]: under setting [1], the IC50 is less than 100 nM.
On the same count and under the same terms, under `NC[C@H]1C[C@@H](c2ccccc2)[C@]2(c3ccc(Br)cc3)Oc3cc(Cl)cnc3[C@]12O` (racemic) [174F, Rac-(5aR,6S,8R,8aR)-8-(aminomethyl)-5a-(4-bromophenyl)-3-chloro-6-phenyl-5a,6,7,8-tetrahydro-8aH-cyclopenta[4,5]furo[3,2-b]pyridin-8a-ol] stands less than 100 nM; under `N#Cc1ccc([C@@]23Oc4cc(Cl)cnc4[C@]2(O)[C@@H](CN)C[C@H]3c2ccccc2)cc1` (racemic) [175F, Rac-4-((5aR,6S,8R,8aR)-8-(aminomethyl)-3-chloro-8a-hydroxy-6-phenyl-6,7,8,8a-tetrahydro-5aH-cyclopenta[4,5]furo[3,2-b]pyridin-5a-yl)benzonitrile], less than 100 nM.
Turning to `N#Cc1ccc([C@@]23Oc4cc(C#N)cnc4[C@]2(O)[C@@H](CN)C[C@H]3c2ccccc2)cc1` (racemic) [176F, rac-(5aR,6S,8R,8aR)-8-(aminomethyl)-5a-(4-cyanophenyl)-8a-hydroxy-6-phenyl-5a,7,8,8a-tetrahydro-6H-cyclopenta[4,5]furo[3,2-b]pyridine-3-carbonitrile], the IC50 under setting [1] lay in the range of 100 to 1000 nM.
For the compound `O[C@]12c3ncc(Cl)cc3O[C@@]1(c1ccc(Br)cc1)[C@H](c1ccccc1)C[C@@H]2CN1CCOCC1` (racemic) [177F, rac-(5aR,6S,8R,8aR)-5a-(4-bromophenyl)-3-chloro-8-(morpholinomethyl)-6-phenyl-5a,6,7,8-tetrahydro-8aH-cyclopenta[4,5]furo[3,2-b]pyridin-8a-ol], the IC50 under setting [1] is 100 to 1000 nM.
For the compound `N#Cc1ccc([C@@]23Oc4cc(Cl)cnc4[C@]2(O)[C@@H](CN2CCOCC2)C[C@H]3c2ccccc2)cc1` (racemic) [178F, Rac-4-((5aR,6S,8R,8aR)-3-chloro-8a-hydroxy-8-(morpholinomethyl)-6-phenyl-6,7,8,8a-tetrahydro-5aH-cyclopenta[4,5]furo[3,2-b]pyridin-5a-yl)benzonitrile], the IC50 under setting [1] is less than 100 nM.
Same read-out and setting: under `COc1cncc2c1[C@]1(O)[C@@H](CN3CCOCC3)[C@H](CO)[C@@H](c3ccccc3)[C@]1(c1ccc(Br)cc1)O2` (racemic) [179F, Rac-(4bR,5R,6R,7S,7aR)-7a-(4-bromophenyl)-6-(hydroxymethyl)-4-methoxy-5-(morpho-linomethyl)-7-phenyl-5,6,7,7a-tetrahydro-4bH-cyclopenta[4,5]furo[2,3-c]pyridin-4b-ol] stands less than 100 nM; under `COc1cncc2c1[C@]1(O)[C@@H](CN3CCOCC3)[C@H](CO)[C@@H](c3ccccc3)[C@]1(c1ccc(C#N)cc1)O2` (racemic) [180F, Rac-4-((4bR,5R,6R,7S,7aR)-4b-hydroxy-6-(hydroxymethyl)-4-methoxy-5-(morpholino-methyl)-7-phenyl-4b,5,6,7-tetrahydro-7aH-cyclopenta[4,5]furo[2,3-c]pyridin-7a-yl)benzonitrile], less than 100 nM.
Still for that read-out and setting: under `COc1cncc2c1[C@]1(O)[C@@H](CNCC(F)F)[C@H](CO)[C@@H](c3ccccc3)[C@]1(c1ccc(Br)cc1)O2` (racemic) [181F, Rac-(4bR,5R,6R,7S,7aR)-7a-(4-bromophenyl)-5-(((2,2-difluoroethyl)amino)methyl)-6-(hydroxymethyl)-4-methoxy-7-phenyl-5,6,7,7a-tetrahydro-4bH-cyclopenta[4,5]furo[2,3-c]pyridin-4b-ol] stands less than 100 nM; under `COc1cncc2c1[C@]1(O)[C@@H](CNCC(F)F)[C@H](CO)[C@@H](c3ccccc3)[C@]1(c1ccc(C#N)cc1)O2` (racemic) [182F, Rac-4-((4bR,5R,6R,7S,7aR)-5-(((2,2-difluoroethyl)amino)methyl)-4b-hydroxy-6-(hydroxyl-methyl)-4-methoxy-7-phenyl-4b,5,6,7-tetrahydro-7aH-cyclopenta[4,5]furo[2,3-c]pyridin-7a-yl)benzonitrile], less than 100 nM.
Consider `COc1cncc2c1[C@]1(O)[C@@H](CN3CCN(C)CC3)[C@H](CO)[C@@H](c3ccccc3)[C@]1(c1ccc(Br)cc1)O2` (racemic) [183F, Rac-(4bR,5R,6R,7S,7aR)-7a-(4-bromophenyl)-6-(hydroxymethyl)-4-methoxy-5-((4-methylpiperazin-1-yl)methyl)-7-phenyl-5,6,7,7a-tetrahydro-4bH-cyclopenta[4,5]furo[2,3-c]pyridin-4b-ol], for which the IC50 (MDA-MB-231, 72 h) was less than 100 nM.
Consider `COc1cncc2c1[C@]1(O)[C@@H](CN3CCN(C)CC3)[C@H](CO)[C@@H](c3ccccc3)[C@]1(c1ccc(C#N)cc1)O2` (racemic) [184F, Rac-4-((4bR,5R,6R,7S,7aR)-4b-hydroxy-6-(hydroxymethyl)-4-methoxy-5-((4-methyl-piperazin-1-yl)methyl)-7-phenyl-4b,5,6,7-tetrahydro-7aH-cyclopenta[4,5]furo[2,3-c]pyridin-7a-yl)benzonitrile], for which the IC50 under setting [1] is less than 100 nM.
As to `COc1cncc2c1[C@]1(O)[C@@H](CNC3COC3)[C@H](CO)[C@@H](c3ccccc3)[C@]1(c1ccc(Br)cc1)O2` (racemic) [185F, Rac-(4bR,5R,6R,7S,7aR)-7a-(4-bromophenyl)-6-(hydroxymethyl)-4-methoxy-5-((oxetan-3-ylamino)methyl)-7-phenyl-5,6,7,7a-tetrahydro-4bH-cyclopenta[4,5]furo[2,3-c]pyridin-4b-ol], the IC50 under setting [1] was less than 100 nM.
With `COc1cncc2c1[C@]1(O)[C@@H](CNC3COC3)[C@H](CO)[C@@H](c3ccccc3)[C@]1(c1ccc(C#N)cc1)O2` (racemic) [186F, Rac-4-((4bR,5R,6R,7S,7aR)-4b-hydroxy-6-(hydroxymethyl)-4-methoxy-5-((oxetan-3-ylamino)-methyl)-7-phenyl-4b,5,6,7-tetrahydro-7aH-cyclopenta[4,5]furo[2,3-c]pyridin-7a-yl)-benzonitrile], under setting [1], the IC50 was less than 100 nM.
Consider `COc1cncc2c1[C@]1(O)[C@@H](CNCc3ccncc3)[C@H](CO)[C@@H](c3ccccc3)[C@]1(c1ccc(Br)cc1)O2` (racemic) [187F, Rac-(4bR,5R,6R,7S,7aR)-7a-(4-bromophenyl)-6-(hydroxymethyl)-4-methoxy-7-phenyl-5-(((pyridin-4-ylmethyl)amino)methyl)-5,6,7,7a-tetrahydro-4bH-cyclopenta[4,5]furo[2,3-c]pyridin-4b-ol], for which, under setting [1], the IC50 was less than 100 nM.
